# Assay results: US20110166176A1, “COMPOUNDS AND COMPOSITIONS AS MODULATORS OF GPR119 ACTIVITY” (IRM LLC, priority 2008, published 2011)
# Target: T1, human GPR119 (Homo sapiens, UniProt Q8TDV5)
# T1 construct: expressed in transfected cells
# T1 sequence (Q8TDV5 1-335): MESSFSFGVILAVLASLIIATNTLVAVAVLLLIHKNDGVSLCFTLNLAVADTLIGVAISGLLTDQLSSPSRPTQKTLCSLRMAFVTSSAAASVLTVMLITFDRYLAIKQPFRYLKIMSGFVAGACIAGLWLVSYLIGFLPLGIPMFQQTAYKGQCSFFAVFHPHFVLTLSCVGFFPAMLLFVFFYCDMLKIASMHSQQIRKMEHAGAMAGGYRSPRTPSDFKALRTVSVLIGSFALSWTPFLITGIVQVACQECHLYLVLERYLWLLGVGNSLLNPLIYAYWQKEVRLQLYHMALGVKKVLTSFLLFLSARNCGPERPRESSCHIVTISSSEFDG
# Test: Cyclic AMP assay (HTRF) in stable Flp-In-CHO-hGPR119 cell line
# Assay type: cell-based
# Settings: Flp-In-CHO-hGPR119 cells, intracellular cAMP, 30 minutes at 37° C., 1 mM IBMX, read-out: CHO-GPR119-HTRF (3158) EC50
# Procedure: Flp-In-CHO cells (Invitrogen, Cat. # R758-07) are maintained in Ham's F12 medium supplemented with 10% fetal bovine serum, 1% antibiotic mixture and 2 mM L-glutamine. The cells are transfected with a DNA mixture containing human GPR119 in pcDNA5/FRT vector and the pOG44 vector (1:9) using Fugene6 (Roche), according to the manufacturer's instruction. After 48 hours, the medium is changed to medium supplemented with 400 μg/ml hygromycin B to initiate the selection of stably transfected cells.
# To test the activity of compounds of the invention, Flp-In-CHO-hGPR119 cells are harvested and resuspended in DMEM plus 3% lipid-depleted fetal bovine serum. Forth μl of cells are plated in 384 well plates at a density of 15,000 cells/well. IBMX (3-isobutyl-1-methyl-xanthine) is added to the cells to a final concentration of 1 mM, followed by the addition of 500 nl of the compound to be tested. The cells are incubated at 37° C. for 30 minutes. Equal volume (20 μl) of the HTRF reagents, anti-cAMP-Cryptate and cAMP-XL665, are added to the cells. The plates are incubated at room temperature for 1 hour and read on a HTRF reader according to the manufacturer's instruction.
# Compounds of Formula I, in free form or in pharmaceutically acceptable salt form, produced a concentration-dependent increase in intracellular cAMP level. […] Specific EC50 data is presented for some of the compounds of the invention in the table, infra.
row,EC50 [nM],SMILES
1,263,CC(C)OC(=O)N(C)Cc1cccc(O[C@H]2CCN(c3ccc(S(C)(=O)=O)cc3)C2)c1 [Example 17]
2,85,"CC(C)OC(=O)N1CCc2cc(O[C@H]3CCN(c4ccc(S(C)(=O)=O)cc4)C3)ccc2C1 [Example 1, (S)-isopropyl 6-(1-(4-(methylsulfonyl)phenyl)pyrrolidin-3-yloxy)-3,4-dihydroisoquinoline-2(1H)-carboxylate]"
3,82,"CCN(Cc1cccc(O[C@H]2CCN(c3ccc(S(C)(=O)=O)cc3)C2)c1)C(=O)OC(C)C [Example 14, (S)-Isopropyl ethyl(3-(1-(4-(methylsulfonyl)phenyl)pyrrolidin-3-yloxy)benzyl)carbamate]"
4,42,"CC(C)OC(=O)N1CCc2cc(O[C@H]3CCN(c4ccc(S(C)(=O)=O)cc4F)C3)ccc2C1 [Example 2, (S)-isopropyl 6-(1-(2-fluoro-4-(methylsulfonyl)phenyl)pyrrolidin-3-yloxy)-3,4-dihydroisoquinoline-2(1H)-carboxylate]"
5,1020,CC(C)OC(=O)OCc1ccc(O[C@@H]2CCN(c3ccc(S(C)(=O)=O)cc3F)C2)cc1 [Example 19]
6,515,CC(C)OC(=O)OCCc1cccc(O[C@@H]2CCN(c3ccc(S(C)(=O)=O)cc3F)C2)c1 [Example 20]
7,424,"CC(C)OC(=O)N1CCc2ccc(CO[C@H]3CCN(c4ccc(S(C)(=O)=O)cc4)C3)cc2C1 [Example 4, (S)-isopropyl 7-((1-(4-(methylsulfonyl)phenyl)pyrrolidin-3-yloxy)methyl)-3,4-dihydroisoquinoline-2(1H)-carboxylate]"
8,33,CC(C)N(Cc1ccccc1)Cc1cccc(O[C@H]2CCN(c3ccc(S(C)(=O)=O)cc3F)C2)c1 [Example 12]
9,794,"CC(C)OC(=O)OCc1cccc(O[C@H]2CCN(c3ccc(S(C)(=O)=O)cc3F)C2)c1 [Example 18, (S)-3-(1-(2-fluoro-4-(methylsulfonyl)phenyl)pyrrolidin-3-yloxy)benzyl isopropyl carbonate]"
10,202,"CC(C)OC(=O)N1CCc2cc(CO[C@H]3CCN(c4ccc(S(C)(=O)=O)cc4)C3)ccc2C1 [Example 3, (S)-isopropyl 6-((1-(4-(methylsulfonyl)phenyl)pyrrolidin-3-yloxy)methyl)-3,4-dihydroisoquinoline-2(1H)-carboxylate]"

# Second part, the molecule before the results:
row,SMILES,EC50 [nM]
1,"CNCc1ccc(O[C@H]2CCN(c3ccc(S(C)(=O)=O)cc3)C2)cc1 [Example 5, (S)—N-methyl-1-(4-(1-(4-(methylsulfonyl)phenyl)pyrrolidin-3-yloxy)phenyl)methanamine]",353
2,CN(Cc1ccccc1)Cc1cccc(O[C@H]2CCN(c3ccc(S(C)(=O)=O)cc3F)C2)c1 [Example 10],259
3,"CNCc1cccc(O[C@H]2CCN(c3ccc(S(C)(=O)=O)cc3)C2)c1 [Example 6, (S)—N-methyl-1-(3-(1-(4-(methylsulfonyl)phenyl)pyrrolidin-3-yloxy)phenyl)methanamine]",319
4,CS(=O)(=O)c1ccc(N2CC[C@H](Oc3cccc(CNCc4ccccc4)c3)C2)c(F)c1 [Example 9],2620
5,CCN(Cc1ccccc1)Cc1cccc(O[C@H]2CCN(c3ccc(S(C)(=O)=O)cc3F)C2)c1 [Example 11],356
6,CCN(Cc1ccccc1)Cc1cccc(O[C@H]2CCN(c3ccc(S(C)(=O)=O)cc3)C2)c1 [Example 7],423
7,CCCN(Cc1ccccc1)Cc1cccc(O[C@H]2CCN(c3ccc(S(C)(=O)=O)cc3F)C2)c1 [Example 13],730
8,CCCN(Cc1cccc(O[C@H]2CCN(c3ccc(S(C)(=O)=O)cc3)C2)c1)C(=O)OC(C)C [Example 15],397
9,CC(C)OC(=O)N(Cc1cccc(O[C@H]2CCN(c3ccc(S(C)(=O)=O)cc3)C2)c1)C(C)C [Example 16],199
10,CC(C)N(Cc1ccccc1)Cc1cccc(O[C@H]2CCN(c3ccc(S(C)(=O)=O)cc3)C2)c1 [Example 8],586
